# Laboratory results as given in patent EP3002287B1, “Thiochromeno[2,3-c]quinolin-12-one derivatives and their use as topoisomerase inhibitors” (National Defense Medical Center, priority 2014, dated 2016).
# Key:
# [1] = target: T1, TOP I (Homo sapiens, UniProt P11387); experiment: Topoisomerase I activity assay (DNA relaxation catalyzed by TOP I); format: biochemical; conditions: primary assay at 25 and/or 50 µM
# T1 construct: purchased TopoGEN TG2005H
# T1 sequence (P11387 1-765): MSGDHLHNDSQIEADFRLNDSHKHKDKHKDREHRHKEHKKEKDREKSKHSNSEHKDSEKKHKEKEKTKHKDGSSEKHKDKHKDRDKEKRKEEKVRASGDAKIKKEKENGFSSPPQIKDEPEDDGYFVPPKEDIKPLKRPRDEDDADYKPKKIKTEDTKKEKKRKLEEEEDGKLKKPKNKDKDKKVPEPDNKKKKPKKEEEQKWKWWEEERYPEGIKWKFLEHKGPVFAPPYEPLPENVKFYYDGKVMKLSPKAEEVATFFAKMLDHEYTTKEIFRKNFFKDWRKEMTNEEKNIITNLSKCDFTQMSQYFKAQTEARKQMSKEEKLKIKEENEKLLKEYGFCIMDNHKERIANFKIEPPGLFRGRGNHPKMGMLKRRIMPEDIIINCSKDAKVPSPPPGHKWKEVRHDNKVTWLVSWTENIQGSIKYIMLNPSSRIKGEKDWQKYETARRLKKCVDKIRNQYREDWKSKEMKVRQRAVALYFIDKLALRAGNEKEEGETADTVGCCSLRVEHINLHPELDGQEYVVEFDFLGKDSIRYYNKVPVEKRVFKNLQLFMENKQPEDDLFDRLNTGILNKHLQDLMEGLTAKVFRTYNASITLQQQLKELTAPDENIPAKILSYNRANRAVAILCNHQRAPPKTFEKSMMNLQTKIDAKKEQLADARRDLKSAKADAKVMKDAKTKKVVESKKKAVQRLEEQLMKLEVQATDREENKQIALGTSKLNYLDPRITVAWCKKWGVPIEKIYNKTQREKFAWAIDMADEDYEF
# Procedure: According to the cell cytotoxicity, compounds 5, 7, 8, 16, 19, N2, N7, N8, N9, N14-N19, and N25 were also selected for primary TOP I and II activities assays at 25 and/or 50 µM (Fig. 2-4).
# [2] = system: PC-3; experiment: MTT assay for cell cytotoxicity; format: cell-based, human; conditions: Homo sapiens, 72 h, at least three independent experiments, read-out: MTT assay (IC50 ± SD) PC-3
# Procedure: (§1) All of synthesis compounds were evaluated cell cytotoxicity by using MTT colorimetric assay on PC-3 and DU-145 cell lines. DU-145 and PC-3 are human hormone-refractory (androgen-independent) prostatic cancer cell lines from American Type Culture Collection (HTB-81™, ATCC, Rockville, MD)^125 and Bioresource Collection and Research Center (60122, BCRC, Taiwan)^126, respectively. Two of the "classical" cell lines were cultivated in RPMI-1640 medium supplemented with 5% fetal bovine serum (v/v), 100 U/mL penicillin, and […] streptomycin. Approximately 2 x 10^3 cells were seeded into each well of a 96-well plate and incubated in 5% CO2 at 37 °C for 24 h. To evaluate the in vitro cytotoxicity, all the synthetic compounds were dissolved in DMSO, prepared immediately before the experiments and diluted into the complete medium before being added to each well of a 96-well plate. Each compound was then added to the culture medium for designated various concentrations (0.15, 0.5, 1.5, 5, 15 µM). After 72 h, an amount of 100 µL of MTT (1 mg/mL) was added to each well, and the samples were incubated at 37 °C for 4 h. After removing the MTT solution, 100 µL of DMSO was added to each well and incubated at 37 °C for another 20 mins. The absorbency at 560 nm was measured by using an ELISA reader.
# (§2) Results are expressed as mean values of at least three independent experiments. The IC50 values of testing compounds were described in Table 1. Table1. Effects of 10-Chloro-12H-thiochromeno[2,3-c]quinolin -12-one derivatives on cytotoxicity by MTT assay.
# [3] = system: DU-145; experiment: MTT assay for cell cytotoxicity; format: cell-based, human; conditions: Homo sapiens, 72 h, at least three independent experiments, read-out: MTT assay (IC50 ± SD) DU-145
# Procedure: as §1, §2
# [4] = target: T2, TOP II (Homo sapiens, UniProt P11388); experiment: Topoisomerase II activity assay (TOP II-catalyzed relaxation of plasmid DNA); format: biochemical; conditions: primary assay at 25 and/or 50 µM
# T2 construct: purchased TopoGEN TG-2000H-1
# Procedure: We also performed TOP 11-catalyzed relaxation of plasmid DNA assays(Fig. 5-7) to evaluate if compounds could inhibit TOP II. […] The IC50 value of compounds 7, N7, N8, N14, N15, N18, and N19 were about 10, 10, 1, 10, 5, 1, and 1 µM, respectively (detect by TopoGEN TG2005H, TG-2000H-1).
# T2 sequence (P11388 whole entry): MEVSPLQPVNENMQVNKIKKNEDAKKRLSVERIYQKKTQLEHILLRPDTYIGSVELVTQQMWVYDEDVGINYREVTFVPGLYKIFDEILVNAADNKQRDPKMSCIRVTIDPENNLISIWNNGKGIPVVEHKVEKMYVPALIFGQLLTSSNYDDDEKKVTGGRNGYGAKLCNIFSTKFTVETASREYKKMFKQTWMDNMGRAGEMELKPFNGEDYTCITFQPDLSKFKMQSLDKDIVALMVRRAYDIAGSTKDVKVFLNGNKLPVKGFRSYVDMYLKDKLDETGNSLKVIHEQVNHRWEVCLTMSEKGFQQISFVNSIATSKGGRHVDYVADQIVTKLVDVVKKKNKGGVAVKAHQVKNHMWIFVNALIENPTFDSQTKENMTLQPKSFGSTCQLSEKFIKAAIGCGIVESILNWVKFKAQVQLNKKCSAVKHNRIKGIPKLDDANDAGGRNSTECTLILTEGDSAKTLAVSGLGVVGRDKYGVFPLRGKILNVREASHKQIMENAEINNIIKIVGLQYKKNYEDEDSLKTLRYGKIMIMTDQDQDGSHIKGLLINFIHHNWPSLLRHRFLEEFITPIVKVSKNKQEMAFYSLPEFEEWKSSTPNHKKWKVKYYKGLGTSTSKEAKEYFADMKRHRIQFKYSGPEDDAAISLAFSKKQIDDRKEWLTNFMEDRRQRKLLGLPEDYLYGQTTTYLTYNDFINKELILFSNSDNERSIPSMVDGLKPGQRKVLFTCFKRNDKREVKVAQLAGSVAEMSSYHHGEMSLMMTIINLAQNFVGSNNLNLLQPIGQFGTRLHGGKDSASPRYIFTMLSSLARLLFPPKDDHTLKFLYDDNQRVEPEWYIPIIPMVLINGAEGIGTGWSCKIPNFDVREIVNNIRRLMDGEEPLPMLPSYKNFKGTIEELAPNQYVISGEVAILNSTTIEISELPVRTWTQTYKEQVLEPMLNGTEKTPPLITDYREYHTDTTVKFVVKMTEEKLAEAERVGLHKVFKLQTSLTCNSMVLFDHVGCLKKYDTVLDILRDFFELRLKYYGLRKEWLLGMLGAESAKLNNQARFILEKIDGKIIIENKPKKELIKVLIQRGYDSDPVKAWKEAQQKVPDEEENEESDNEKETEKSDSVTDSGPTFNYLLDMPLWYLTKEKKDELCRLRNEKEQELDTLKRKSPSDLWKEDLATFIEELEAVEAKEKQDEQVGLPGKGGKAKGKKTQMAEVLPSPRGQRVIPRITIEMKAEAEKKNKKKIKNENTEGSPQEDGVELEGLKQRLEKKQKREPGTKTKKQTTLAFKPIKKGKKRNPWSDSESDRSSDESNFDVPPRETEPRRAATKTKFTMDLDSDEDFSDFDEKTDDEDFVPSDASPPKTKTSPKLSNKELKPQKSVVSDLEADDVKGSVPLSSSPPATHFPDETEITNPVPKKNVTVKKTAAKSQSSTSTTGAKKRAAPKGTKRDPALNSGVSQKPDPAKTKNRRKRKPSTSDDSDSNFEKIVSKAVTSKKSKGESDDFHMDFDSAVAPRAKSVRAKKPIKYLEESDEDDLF
SMILES,inhibitory effects in TOP I activity assay compared with CPT [1],IC50 [2] [nM],IC50 [3] [nM],inhibitory effects on TOP II compared with the positive agent VP-16 [4]
"CN(C)CCNc1nc2ccccc2c2c(=O)c3cc(Cl)ccc3sc12 [Compound N7, 10-Chloro-6-((2-(dimethylamino)ethyl)amino)-12H-thiochrome no[2,3-c]quinolin-12-one]",more potent inhibitory effects than CPT,2250 ± 610,5940 ± 3450,more potent inhibitory effects than the positive agent VP-16
"O=c1c2cc(Cl)ccc2sc2c(NCc3ccccc3)nc3ccccc3c12 [Compound N25, 6-(Benzylamino)-10-chloro-12H-thiochromeno[2,3-c]quinolin-12-tone]",more potent inhibitory effects than CPT,11200 ± 1550,13500 ± 690,
"CCN(CC)CCNc1nc2ccccc2c2c(=O)c3cc(Cl)ccc3sc12 [Compound N8, 10-Chloro-6-((2-(diethylamino)ethyl)amino)-12H-thiochromen o[2,3-c]quinolin-12-one]",,1110 ± 690,1730 ± 720,more potent inhibitory effects than the positive agent VP-16
"O=c1c2cc(Cl)ccc2sc2c(NCCCNCCO)nc3ccccc3c12 [Compound N19, 10-Chloro-6-((3-((2-hydroxyethyl)amino)propyl)amino)-12H-th iochromeno[2,3-c]quinolin-12-one]",,1980 ± 720,1500 ± 1320,more potent inhibitory effects than the positive agent VP-16
"O=c1c2cc(Cl)ccc2sc2c(N3CCC(Cc4ccccc4)CC3)nc3ccccc3c12 [Compound 17, 6-(4-Benzylpiperidin-1-yl)-10-chloro-12H-thiochromeno[2,3-c]q uinolin-12-one]",,> 15000,> 15000,
"CCCNc1nc2ccccc2c2c(=O)c3cc(Cl)ccc3sc12 [Compound N3, 10-Chloro-6 propylamino-12H-thiochromeno[2,3-c]quinolin-1 2-one]",,7410 ± 3430,7640 ± 2740,
"O=c1c2cc(Cl)ccc2sc2c(N3CCSCC3)nc3ccccc3c12 [Compound 14, 10-Chloro-6-thiomorpholino-12H thiochromeno[2,3-c]quinolin-12-one]",,> 15000,> 15000,
"O=C1c2c(O)ccc(O)c2C(=O)c2c(NCCNCCO)ccc(NCCNCCO)c21 [Mitoxantrone, reference compound]",,390 ± 20,100 ± 10,

# Continued, in another order:
inhibitory effects in TOP I activity assay compared with CPT [1],SMILES,IC50 [2] [nM],IC50 [3] [nM],inhibitory effects on TOP II compared with the positive agent VP-16 [4]
more potent inhibitory effects than CPT,"NCCNc1nc2ccccc2c2c(=O)c3cc(Cl)ccc3sc12 [Compound N14, 6-((2-Aminoethyl)amino)-10-chloro-12H-thiochromeno[2,3-c]q uinolin-12-one]",1640 ± 550,1800 ± 400,more potent inhibitory effects than the positive agent VP-16
more potent inhibitory effects than CPT,"O=c1c2cc(Cl)ccc2sc2c(N3CCNCC3)nc3ccccc3c12 [Compound 7, 10-Chloro-6-(piperazin-1-yl)-12H-thiochromeno[2,3-c]quinolin-12-one]",2840 ± 640,5010 ± 1680,more potent inhibitory effects than the positive agent VP-16
more potent inhibitory effects than CPT,"CN(C)CCCNc1nc2ccccc2c2c(=O)c3cc(Cl)ccc3sc12 [Compound N17, 10-Chloro-6-((3-(dimethylamino)propyl)amino)-12H-thiochrom eno[2,3-c]quinolin-12-one]",2270 ± 90,2700 ± 160,
more potent inhibitory effects than CPT,"O=c1c2cc(Cl)ccc2sc2c(NCCNCCO)nc3ccccc3c12 [Compound N15, 10-Chloro-6-((2-((2-hydroxyethyl)amino)ethyl)amino)-12H-thio chromen[2,3-c]quinolin-12-one]",3440 ± 1810,3810 ± 1880,more potent inhibitory effects than the positive agent VP-16
more potent inhibitory effects than CPT,"CCN(CC)CCCNc1nc2ccccc2c2c(=O)c3cc(Cl)ccc3sc12 [Compound N18, 10-Chloro-6-((3-(diethylamino)propyl)amino)-12H-thiochrome no[2,3-c]quinolin-12-one]",2220 ± 210,3530 ± 1050,more potent inhibitory effects than the positive agent VP-16
